Several values for one entry are separate records, joined by “and”; a condition that tells them apart may be missing. Equal entries are not always repeated. Inconclusive results and toxic doses are left out.
System: BDF1 mice, P388 leukemia ip, median survival T/C
Assay: NCI In Vivo Anticancer Drug Screen. Data for tumor model P388 Leukemia (intraperitoneal) in B6D2F1 (BDF1) mice
Details: endpoint: median survival time, higher = longer survival
Procedure, shortened: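 Reported as T/C, where T is the survival measurement in dosed animals and C the same measurement in vehicle controls.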

[1] = dose: 100.0 mg/kg/injection, schedule: Q01DX009 (ip), vehicle: saline with Tween-80
[2] = dose: 200.0 mg/kg/injection, schedule: Q01DX009 (ip), vehicle: saline with Tween-80
[3] = dose: 400.0 mg/kg/injection, schedule: Q01DX009 (ip), vehicle: saline with Tween-80
[4] = dose: 12.5 mg/kg/injection, schedule: Q01DX009 (ip), vehicle: Klucel (hydroxypropylcellulose) (HPC)
[5] = dose: 25.0 mg/kg/injection, schedule: Q01DX009 (ip), vehicle: Klucel (hydroxypropylcellulose) (HPC)
[6] = dose: 50.0 mg/kg/injection, schedule: Q01DX009 (ip), vehicle: Klucel (hydroxypropylcellulose) (HPC)
[7] = dose: 100.0 mg/kg/injection, schedule: Q01DX009 (ip), vehicle: Klucel (hydroxypropylcellulose) (HPC)
[8] = dose: 200.0 mg/kg/injection, schedule: Q01DX009 (ip), vehicle: Klucel (hydroxypropylcellulose) (HPC)
[9] = dose: 100.0 mg/kg/injection, schedule: Q04DX003 (ip), vehicle: Klucel (hydroxypropylcellulose) (HPC)
[10] = dose: 200.0 mg/kg/injection, schedule: Q04DX003 (ip), vehicle: Klucel (hydroxypropylcellulose) (HPC)
[11] = dose: 50.0 mg/kg/injection, schedule: Q01DX009 (ip), vehicle: saline with Tween-80
[12] = dose: 100.0 mg/kg/injection, schedule: Q04DX003 (ip), vehicle: saline with Tween-80
[13] = dose: 200.0 mg/kg/injection, schedule: Q04DX003 (ip), vehicle: saline with Tween-80
[14] = dose: 25.0 mg/kg/injection, schedule: Q04DX003 (ip), vehicle: other
[15] = dose: 50.0 mg/kg/injection, schedule: Q01DX009 (ip), vehicle: water
[16] = dose: 50.0 mg/kg/injection, schedule: Q04DX003 (ip), vehicle: water
[17] = dose: 100.0 mg/kg/injection, schedule: Q01DX009 (ip), vehicle: water
[18] = dose: 100.0 mg/kg/injection, schedule: Q04DX003 (ip), vehicle: water

In the case of `CCOC(=O)c1ccc(NCC#N)cc1`, the T/C [1] is reported as 90 % of control, the T/C [2] is reported as 100 % of control and the T/C [3] is reported as 100 % of control.

In the case of `CN(C)c1ccc2c(Cl)cc(Cl)nc2c1`, the T/C [4] is reported as 109 % of control, the T/C [5] is reported as 109 % of control and the T/C [6] is reported as 111 % of control. The T/C [7] was 117 % of control and the T/C [8] was 107 % of control.

With `C=C(C)[C@@]12O[C@@]3(CCCCCCCCC)O[C@@H]1[C@@H]1[C@@H]4O[C@]4(CO)[C@@H](O)[C@]4(O)C(=O)C(C)=CC4[C@@]1(O3)[C@H](C)[C@H]2OC(=O)c1ccccc1` (stereo not given in full) the T/C (dose: 400.0 micrograms/kg/injection, schedule: Q01DX009 (ip), vehicle: saline + alcohol) was 174 % of control.

`CCCCCCCCCCCCCCCC(=O)OCC1OC(CO)(OC2OC(CO)C(O)C(O)C2O)C(O)C1O` (stereo not given) was tested, and the T/C [9] was 104 % of control and the T/C [10] was 112 % of control.

With `Cc1onc(-c2c(Cl)cccc2Cl)c1C(=O)Nc1ccccc1CC1c2ccccc2CCN1C` (stereo not given) the T/C [4] was 96 % of control, the T/C [5] was 99 % of control and the T/C [6] was 89 % of control and 102 % of control.

For `O=C1OC(c2ccccc2)CC1NCc1ccccc1` (stereo not given), the T/C (dose: 100.0 mg/kg/injection, schedule: Q01DX001 (ip), vehicle: saline with Tween-80) was 100 % of control, the T/C (dose: 200.0 mg/kg/injection, schedule: Q01DX001 (ip), vehicle: saline with Tween-80) was 100 % of control and the T/C (dose: 400.0 mg/kg/injection, schedule: Q01DX001 (ip), vehicle: saline with Tween-80) was 100 % of control.

With `Cc1cc2c(c3ncccc13)OCN(Cc1ccc(Cl)cc1)C2` the T/C (dose: 12.5 mg/kg/injection, schedule: Q01DX009 (ip), vehicle: saline with Tween-80) was 104 % of control, the T/C (dose: 25.0 mg/kg/injection, schedule: Q01DX009 (ip), vehicle: saline with Tween-80) was 100 % of control and the T/C [11] was 91 % of control.

In the case of `CC(C)=CCNc1ncnc2c1ncn2C1OC(CO)C(O)C1O` (stereo not given), the T/C (dose: 50.0 mg/kg/injection, schedule: Q04DX003 (ip), vehicle: Klucel (hydroxypropylcellulose) (HPC)) is reported as 95 % of control, the T/C [9] is reported as 100 % of control and the T/C [12] is reported as 104 % of control. The T/C [10] was 95 % of control and the T/C [13] was 100 % of control.

With `O=C(O)CN(Cc1ccccc1)Sc1ccccc1[N+](=O)[O-]` the T/C [14] was 105 % of control, the T/C (dose: 50.0 mg/kg/injection, schedule: Q04DX003 (ip), vehicle: other) was 117 % of control and the T/C (dose: 200.0 mg/kg/injection, schedule: Q04DX003 (ip), vehicle: other) was 117 % of control.

In the case of `COc1cc2ccc(CC(=O)NCCc3ccc4c(c3)OCO4)cc2cc1OC`, the T/C [9] is reported as 100 % of control, the T/C [10] is reported as 90 % of control and the T/C (dose: 400.0 mg/kg/injection, schedule: Q04DX003 (ip), vehicle: Klucel (hydroxypropylcellulose) (HPC)) is reported as 90 % of control.

In the case of `CC(=O)OCc1cc2ccccc2nc1C`, the T/C [12] is reported as 100 % of control, the T/C [2] is reported as 95 % of control and the T/C [13] is reported as 104 % of control. For the same compound, the T/C [3] was 95 % of control and the T/C (dose: 400.0 mg/kg/injection, schedule: Q04DX003 (ip), vehicle: saline with Tween-80) was 100 % of control.

`Clc1ncn[nH]1` was tested, and the T/C (dose: 100.0 mg/kg/injection, schedule: Q01DX001 (ip), vehicle: saline sonified) was 120 % of control, the T/C (dose: 200.0 mg/kg/injection, schedule: Q01DX001 (ip), vehicle: saline sonified) was 112 % of control and the T/C (dose: 400.0 mg/kg/injection, schedule: Q01DX001 (ip), vehicle: saline sonified) was 120 % of control.

With `C=CC[N+](C)(CC=C)CC[N+](C)(CC=C)CC=C` the T/C [15] was 95 % of control, the T/C [16] was 109 % of control and the T/C [17] was 104 % of control. For the same compound, the T/C [18] was 104 % of control and the T/C (dose: 150.0 mg/kg/injection, schedule: Q01DX009 (ip), vehicle: water) was 95 % of control.

`NC(C(=O)O)C1=CCC=CC1` (stereo not given) was tested, and the T/C [11] was 98 % of control and the T/C [1] was 99 % of control.

`O=c1[nH]cnc2ccc(Cl)cc12` was tested, and the T/C (dose: 37.5 mg/kg/injection, schedule: Q01DX009 (ip), vehicle: saline with Tween-80) was 92 % of control, the T/C (dose: 37.5 mg/kg/injection, schedule: Q04DX003 (ip), vehicle: saline with Tween-80) was 92 % of control and the T/C (dose: 75.0 mg/kg/injection, schedule: Q01DX009 (ip), vehicle: saline with Tween-80) was 96 % of control.

In the case of `C#CCCOC(=O)Nc1ccccc1`, the T/C [7] is reported as 100 % of control, the T/C [8] is reported as 90 % of control and the T/C (dose: 400.0 mg/kg/injection, schedule: Q01DX009 (ip), vehicle: Klucel (hydroxypropylcellulose) (HPC)) is reported as 90 % of control.

`CCN(CC)c1ccc(N)cc1` was tested, and the T/C (dose: 6.25 mg/kg/injection, schedule: Q04DX003 (ip), vehicle: other) was 100 % of control, the T/C (dose: 12.5 mg/kg/injection, schedule: Q01DX009 (ip), vehicle: other) was 100 % of control and the T/C (dose: 12.5 mg/kg/injection, schedule: Q04DX003 (ip), vehicle: other) was 115 % of control. For the same compound, the T/C (dose: 25.0 mg/kg/injection, schedule: Q01DX009 (ip), vehicle: other) was 120 % of control and the T/C [14] was 110 % of control.

For `CC(=O)Oc1cc(-c2ccccc2)c(OC(C)=O)cc1-c1ccccc1`, the T/C (dose: 6.25 mg/kg/injection, schedule: Q01DX009 (ip), vehicle: water) was 109 % of control, the T/C (dose: 12.5 mg/kg/injection, schedule: Q01DX009 (ip), vehicle: water) was 95 % of control and the T/C (dose: 12.5 mg/kg/injection, schedule: Q04DX003 (ip), vehicle: water) was 89 % of control. The T/C (dose: 25.0 mg/kg/injection, schedule: Q01DX009 (ip), vehicle: water) was 93 % of control, the T/C (dose: 25.0 mg/kg/injection, schedule: Q04DX003 (ip), vehicle: water) was 89 % of control and 95 % of control and the T/C [15] was 92 % of control. The T/C [16] was 91 % of control and 98 % of control, the T/C [17] was 94 % of control and the T/C [18] was 89 % of control and 95 % of control. For the same compound, the T/C (dose: 200.0 mg/kg/injection, schedule: Q01DX009 (ip), vehicle: water) was 102 % of control, the T/C (dose: 300.0 mg/kg/injection, schedule: Q01DX009 (ip), vehicle: water) was 107 % of control and the T/C (dose: 400.0 mg/kg/injection, schedule: Q01DX009 (ip), vehicle: water) was 91 % of control.

`CCOP(=O)(O)OCC.[Al]` was tested, and the T/C [11] was 100 % of control, the T/C [1] was 103 % of control and the T/C [2] was 103 % of control.

For `CCCCCCCCCCCCCCCCN(C)c1ccc(C=O)cc1`, the T/C (dose: 100.0 mg/kg/injection, schedule: Q01DX009 (ip), vehicle: saline) was 104 % of control and 110 % of control, the T/C (dose: 100.0 mg/kg/injection, schedule: Q04DX003 (ip), vehicle: saline) was 118 % of control and the T/C (dose: 200.0 mg/kg/injection, schedule: Q01DX009 (ip), vehicle: saline) was 100 % of control and 105 % of control. The T/C (dose: 200.0 mg/kg/injection, schedule: Q04DX003 (ip), vehicle: saline) was 109 % of control, the T/C (dose: 400.0 mg/kg/injection, schedule: Q01DX009 (ip), vehicle: saline) was 113 % of control and the T/C (dose: 400.0 mg/kg/injection, schedule: Q04DX003 (ip), vehicle: saline) was 109 % of control.

For `O=[N+]([O-])c1cccnc1Oc1cccc(C(F)(F)F)c1`, the T/C (dose: 50.0 mg/kg/injection, schedule: Q01DX001 (ip), vehicle: other) was 100 % of control, the T/C (dose: 100.0 mg/kg/injection, schedule: Q01DX001 (ip), vehicle: other) was 95 % of control and the T/C (dose: 200.0 mg/kg/injection, schedule: Q01DX001 (ip), vehicle: other) was 86 % of control. For the same compound, the T/C (dose: 400.0 mg/kg/injection, schedule: Q01DX001 (ip), vehicle: other) was 95 % of control.

`CC(NC(=O)C(N)C(C)C)C(=O)O` (stereo not given) was tested, and the T/C (dose: 50.0 mg/kg/injection, schedule: Q01DX005 (ip), vehicle: saline) was 92 % of control, the T/C (dose: 100.0 mg/kg/injection, schedule: Q01DX005 (ip), vehicle: saline) was 97 % of control and the T/C (dose: 200.0 mg/kg/injection, schedule: Q01DX005 (ip), vehicle: saline) was 92 % of control.

From PubChem BioAssay AID328 (DTP/NCI, 2004)
